Target: T1, PPAR γ (Homo sapiens, UniProt P37231)
T1 construct: Following the challenge of the preadipocytes, cells may be lysed with lysis buffer; endogenous in cells; host or cells: preadipocytes
T1 sequence (P37231 1-505): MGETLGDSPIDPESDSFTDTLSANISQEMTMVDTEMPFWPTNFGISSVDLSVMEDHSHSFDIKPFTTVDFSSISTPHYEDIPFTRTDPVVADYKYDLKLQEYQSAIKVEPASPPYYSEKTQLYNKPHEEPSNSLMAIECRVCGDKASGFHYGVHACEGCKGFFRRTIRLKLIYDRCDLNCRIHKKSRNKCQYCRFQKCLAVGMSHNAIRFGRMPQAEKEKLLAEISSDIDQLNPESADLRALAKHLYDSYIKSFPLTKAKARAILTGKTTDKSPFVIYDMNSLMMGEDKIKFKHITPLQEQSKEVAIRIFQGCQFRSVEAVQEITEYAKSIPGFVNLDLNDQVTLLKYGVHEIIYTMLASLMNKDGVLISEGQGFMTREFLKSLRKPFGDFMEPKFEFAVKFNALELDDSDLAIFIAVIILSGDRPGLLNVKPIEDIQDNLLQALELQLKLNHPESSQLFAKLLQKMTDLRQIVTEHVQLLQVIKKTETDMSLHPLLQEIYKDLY
Assay: aP2 Assay for Agonist (induction of aP2 mRNA production); as to Agonist Intrinsic Activity: test concentration or dose not given here
Format: cell-based
Conditions: Table 1; fold increase over vehicle in induction of aP2 mRNA production

Going from `COC(=O)CCc1cccc(OCCC2Oc3ccccc3N(Cc3cccc(C(F)(F)F)c3)C2=O)c1` (centres unmarked) [Compound 35] to `COC(=O)c1ccccc1OCCC1Oc2ccccc2N(Cc2cccc(C(F)(F)F)c2)C1=O` (centres unmarked) [Compound 9, Benzoic acid, 2-[2-[3,4-dihydro-3-oxo-4-[[3-(trifluoromethyl)phenyl]methyl]-2H-1,4-benzoxazin-2-yl]ethoxy]-, methyl ester], the “Agonist Intrinsic Activity” value rises from 0.8 to 0.9.

Going from `O=C(O)Cc1ccccc1OCCC1Oc2ccccc2N(CCCCCCO)C1=O` (centres unmarked) [Compound 95] to `O=C(O)Cc1ccccc1OCCC1Oc2ccccc2N(CCCCCCCO)C1=O` (centres unmarked) [Compound 112], the “Agonist Intrinsic Activity” value rises from 36.9 to 74.5.

Compared with `CCCCCCCCN1C(=O)C(CCOc2ccccc2CC(=O)O)Oc2ccccc21` (centres unmarked) [Compound 53], `CCCCCCCN1C(=O)C(CCOc2ccccc2CC(=O)O)Oc2ccccc21` (centres unmarked) [Compound 51] is higher in “Agonist Intrinsic Activity” value: 26.4 for the first, 28.6 for the second.

First: COC(=O)Cc1ccccc1OCCC1Oc2ccccc2N(CCOC(C)=O)C1=O (centres unmarked) [Compound 47]
Second: C#CCN1C(=O)C(CCOc2ccccc2CC(=O)OC)Oc2ccccc21 (centres unmarked) [Compound 49]
The “Agonist Intrinsic Activity” value of the first is lower: 1.3 for the first, 5.7 for the second.

Going from `COC(=O)c1ccccc1OCCC1Oc2ccccc2N(Cc2ccc(Cl)cc2)C1=O` (centres unmarked) [Compound 5] to `COC(=O)c1ccccc1OCCC1Oc2ccccc2N(Cc2ccccc2)C1=O` (centres unmarked) [Compound 4], the “Agonist Intrinsic Activity” value rises from 0.7 to 1.0.

First: O=C1C(CCOc2ccccc2C(F)(F)F)Oc2ccccc2N1Cc1ccc(Cl)c(Cl)c1 (centres unmarked) [Compound 8]
Second: Cc1cccc(CN2C(=O)C(CCOc3ccccc3C(F)(F)F)Oc3ccccc32)c1 (centres unmarked) [Compound 2]
The “Agonist Intrinsic Activity” value of the first is higher: 3.3 for the first, 1.2 for the second.

`NC(=O)CCCCN1C(=O)C(CCOc2ccccc2CC(=O)O)Oc2ccccc21` (centres unmarked) [Compound 62] and `O=C(O)CCCCN1C(=O)C(CCOc2ccccc2CC(=O)O)Oc2ccccc21` (centres unmarked) [Compound 60] are the same in “Agonist Intrinsic Activity” value: 1.5 for the first, 1.5 for the second.

Compared with `CCCCCCCCCN1C(=O)C(CCOc2ccccc2CC(=O)OC)Oc2ccccc21` (centres unmarked) [Compound 54], `CCCCCCCCN1C(=O)C(CCOc2ccccc2CC(=O)OC)Oc2ccccc21` (centres unmarked) [Compound 52] is higher in “Agonist Intrinsic Activity” value: 0.9 for the first, 1.3 for the second.

Going from `O=C(O)Cc1ccccc1OCCC1Oc2ccccc2N(CCCCCCF)C1=O` (centres unmarked) [Compound 91, Benzeneacetic acid, 2-[2-[4-(6-fluorohexyl)-3,4-dihydro-3-oxo-2H-1,4-benzoxazin-2-yl]ethoxy]-] to `O=C(O)CCCCCN1C(=O)C(CCOc2ccccc2CC(=O)O)Oc2ccccc21` (centres unmarked) [Compound 101, 2H-1,4-Benzoxazine-4-hexanoic acid, 2-[2-[2-(carboxymethyl)phenoxy]ethyl]-3,4-dihydro-3-oxo-], the “Agonist Intrinsic Activity” value falls from 64.9 to 3.0.

Going from `COCCCCN1C(=O)C(CCOc2ccccc2CC(=O)O)Oc2ccccc21` (centres unmarked) [Compound 114] to `CCOCCCN1C(=O)C(CCOc2ccccc2CC(=O)O)Oc2ccccc21` (centres unmarked) [Compound 115], the “Agonist Intrinsic Activity” value falls from 50.7 to 40.9.

Going from `O=C(O)Cc1ccccc1OCCC1Oc2ccccc2N(CCC2CCCC2)C1=O` (centres unmarked) [Compound 68] to `O=C(O)Cc1ccccc1OCCC1Oc2ccccc2N(CCCC2CCCC2)C1=O` (centres unmarked) [Compound 70], the “Agonist Intrinsic Activity” value rises from 43.2 to 57.9.

First: COC(=O)Cc1ccccc1OCCC1Oc2ccccc2N(CCC2CCCCC2)C1=O (centres unmarked) [Compound 65]
Second: CC(F)(F)CCCCN1C(=O)C(CCOc2ccccc2CC(=O)O)Oc2ccccc21 (centres unmarked) [Compound 87]
The “Agonist Intrinsic Activity” value of the first is lower: 0.8 for the first, 37.9 for the second.

First: CCCCCCN1C(=O)C(CCOc2ccc(SC(C)(C)C(=O)O)cc2)Oc2ccccc21 (centres unmarked) [Compound 121]
Second: CC(C)(C#N)CCCCN1C(=O)C(CCOc2ccccc2CC(=O)O)Oc2ccccc21 (centres unmarked) [Compound 104]
The “Agonist Intrinsic Activity” value of the first is lower: 16.13 for the first, 26.5 for the second.

First: O=C(O)Cc1cccc(OCCC2Oc3ccccc3N(Cc3cc(C(F)(F)F)cc(C(F)(F)F)c3)C2=O)c1 (centres unmarked) [Compound 44]
Second: O=C1C(CCOc2ccccc2C(F)(F)F)Oc2ccccc2N1Cc1cccc(C(F)(F)F)c1 (centres unmarked) [Compound 10]
The “Agonist Intrinsic Activity” value of the first is higher: 6.8 for the first, 0.8 for the second.

Going from `COCCCCN1C(=O)C(CCOc2ccccc2C(F)(F)F)Oc2ccccc21` (centres unmarked) [Compound 18] to `CC(F)(F)CCCCN1C(=O)C(CCOc2ccccc2CC(=O)O)Oc2ccccc21` (single isomer, unassigned) [Compound 88], the “Agonist Intrinsic Activity” value rises from 0.3 to 45.4.

Compared with `CON=C(C)CCCCN1C(=O)C(CCOc2ccccc2CC(=O)O)Oc2ccccc21` (centres unmarked) [Compound 80], `CC(=O)CCCCN1C(=O)C(CCOc2ccccc2CC(=O)O)Oc2ccccc21` (centres unmarked) [Compound 78, Benzeneacetic acid, 2-[2-[3,4-dihydro-3-oxo-4-(5-oxohexyl)-2H-1,4-benzoxazin-2-yl]ethoxy]-] is higher in “Agonist Intrinsic Activity” value: 2.8 for the first, 11.1 for the second.

With `O=C(O)Cc1ccccc1OCCC1Oc2ccccc2N(Cc2ccc(C(F)(F)F)cc2)C1=O` (centres unmarked) [Compound 38] the “Agonist Intrinsic Activity” value was 38.7.

Same assay, conditions: Table 2; fold increase over vehicle in induction of aP2 mRNA production

`CCCCCCN1C(=O)C(C)(CCOc2ccccc2CC(=O)O)Oc2ccccc21` (centres unmarked) [Compound 128, Benzeneacetic acid, 2-[2-(4-hexyl-3,4-dihydro-2-methyl-3-oxo-2H-1,4-benzoxazin-2-yl)ethoxy]-] was tested, and the “Agonist Intrinsic Activity” value was 2.5.

Same assay, conditions: Table 3 (stereoisomers); fold increase over vehicle in induction of aP2 mRNA production

With `CC1(CCOc2ccccc2CC(=O)O)Oc2ccccc2N(CCCCCCF)C1=O` (centres unmarked) [Compound 131] the “PPAR γ Agonist Intrinsic Activity” value was 36.4.

— US6908908B2, “Biologically active 4H-benzo [1,4] oxazin-3-ones” (Ortho-McNeil Pharmaceutical, Inc., priority 2000, dated 2005)
